In PMC3961306, “Comparison of the Cancer Gene Targeting and Biochemical Selectivities of All Targeted Kinase Inhibitors Approved for Clinical Use” (PLoS ONE, 2014):

Experiments:
Test in all cases: Kinase profiling in a biochemical assay panel (mobility shift assays and ELISA), %-inhibition at 1 μM; selectivity entropy
[1] = biological target: T1, panel of more than 300 wild-type and mutant kinases (313 kinase panel) (Homo sapiens, UniProt O15111)
T1 sequence (O15111 1-745): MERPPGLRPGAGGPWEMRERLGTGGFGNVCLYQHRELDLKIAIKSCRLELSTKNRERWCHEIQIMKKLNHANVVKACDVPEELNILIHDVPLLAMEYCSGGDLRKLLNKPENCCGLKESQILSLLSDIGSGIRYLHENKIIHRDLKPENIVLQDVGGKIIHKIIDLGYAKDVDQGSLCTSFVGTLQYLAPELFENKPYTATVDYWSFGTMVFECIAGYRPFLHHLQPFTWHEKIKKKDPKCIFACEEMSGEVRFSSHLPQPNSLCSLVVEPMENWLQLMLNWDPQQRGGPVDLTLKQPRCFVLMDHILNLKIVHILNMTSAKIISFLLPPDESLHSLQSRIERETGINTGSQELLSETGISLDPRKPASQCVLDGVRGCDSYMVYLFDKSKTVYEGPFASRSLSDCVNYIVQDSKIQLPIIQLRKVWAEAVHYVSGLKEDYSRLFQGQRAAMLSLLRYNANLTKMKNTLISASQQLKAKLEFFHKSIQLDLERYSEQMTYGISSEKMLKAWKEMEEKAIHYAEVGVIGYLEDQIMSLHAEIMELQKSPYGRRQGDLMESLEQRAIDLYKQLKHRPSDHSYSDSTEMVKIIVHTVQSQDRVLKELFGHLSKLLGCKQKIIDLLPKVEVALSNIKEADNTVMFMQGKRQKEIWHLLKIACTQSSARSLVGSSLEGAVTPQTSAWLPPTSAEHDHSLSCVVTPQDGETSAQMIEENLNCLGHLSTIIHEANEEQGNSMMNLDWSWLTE

[2] = biological target: panel of more than 300 wild-type and mutant kinases (313 kinase panel) (Homo sapiens, UniProt P06493)
[3] = biological target: panel of more than 300 wild-type and mutant kinases (313 kinase panel) (Homo sapiens, UniProt P24723)
Chain of panel of more than 300 wild-type and mutant kinases (313 kinase panel) (Homo sapiens, UniProt P24723) (P24723 whole entry, change not shown): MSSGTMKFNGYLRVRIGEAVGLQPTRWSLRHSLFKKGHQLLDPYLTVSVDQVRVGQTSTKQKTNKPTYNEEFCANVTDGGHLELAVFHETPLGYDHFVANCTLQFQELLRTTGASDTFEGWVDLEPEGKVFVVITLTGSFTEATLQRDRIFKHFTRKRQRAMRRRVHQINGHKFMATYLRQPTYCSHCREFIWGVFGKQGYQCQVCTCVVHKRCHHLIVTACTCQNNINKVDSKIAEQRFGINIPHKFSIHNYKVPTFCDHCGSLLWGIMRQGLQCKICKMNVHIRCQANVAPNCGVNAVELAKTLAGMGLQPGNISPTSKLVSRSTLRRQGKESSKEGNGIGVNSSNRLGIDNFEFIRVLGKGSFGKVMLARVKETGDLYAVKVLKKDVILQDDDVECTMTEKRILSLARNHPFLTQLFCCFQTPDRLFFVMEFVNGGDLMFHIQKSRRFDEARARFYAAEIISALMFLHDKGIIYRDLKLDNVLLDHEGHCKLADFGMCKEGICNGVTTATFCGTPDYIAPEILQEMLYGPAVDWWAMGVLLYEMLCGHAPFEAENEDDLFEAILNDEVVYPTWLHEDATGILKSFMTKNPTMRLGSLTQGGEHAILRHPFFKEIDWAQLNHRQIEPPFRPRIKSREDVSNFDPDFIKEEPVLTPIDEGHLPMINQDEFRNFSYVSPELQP

[4] = biological target: T2, panel of more than 300 wild-type and mutant kinases (313 kinase panel) (Homo sapiens, UniProt P42681); conditions: kinase TXK; compound at 1 μM
T2 sequence (P42681 1-527): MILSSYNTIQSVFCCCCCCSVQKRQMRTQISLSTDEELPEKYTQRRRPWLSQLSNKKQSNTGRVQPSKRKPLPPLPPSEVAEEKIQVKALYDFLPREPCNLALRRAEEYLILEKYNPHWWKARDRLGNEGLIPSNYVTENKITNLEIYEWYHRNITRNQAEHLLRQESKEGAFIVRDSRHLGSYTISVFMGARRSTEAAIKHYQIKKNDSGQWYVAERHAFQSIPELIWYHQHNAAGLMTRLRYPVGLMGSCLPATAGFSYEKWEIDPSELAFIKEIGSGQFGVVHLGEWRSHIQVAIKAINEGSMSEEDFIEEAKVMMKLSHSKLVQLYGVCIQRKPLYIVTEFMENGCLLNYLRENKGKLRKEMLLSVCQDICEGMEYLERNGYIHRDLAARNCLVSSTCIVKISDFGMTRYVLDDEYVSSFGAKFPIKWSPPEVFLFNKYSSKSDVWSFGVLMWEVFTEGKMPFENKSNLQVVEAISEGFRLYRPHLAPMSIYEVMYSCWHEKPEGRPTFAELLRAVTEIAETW

[5] = biological target: panel of more than 300 wild-type and mutant kinases (313 kinase panel) (Homo sapiens, UniProt P42685)
Chain of panel of more than 300 wild-type and mutant kinases (313 kinase panel) (Homo sapiens, UniProt P42685) (P42685 whole entry, change not shown): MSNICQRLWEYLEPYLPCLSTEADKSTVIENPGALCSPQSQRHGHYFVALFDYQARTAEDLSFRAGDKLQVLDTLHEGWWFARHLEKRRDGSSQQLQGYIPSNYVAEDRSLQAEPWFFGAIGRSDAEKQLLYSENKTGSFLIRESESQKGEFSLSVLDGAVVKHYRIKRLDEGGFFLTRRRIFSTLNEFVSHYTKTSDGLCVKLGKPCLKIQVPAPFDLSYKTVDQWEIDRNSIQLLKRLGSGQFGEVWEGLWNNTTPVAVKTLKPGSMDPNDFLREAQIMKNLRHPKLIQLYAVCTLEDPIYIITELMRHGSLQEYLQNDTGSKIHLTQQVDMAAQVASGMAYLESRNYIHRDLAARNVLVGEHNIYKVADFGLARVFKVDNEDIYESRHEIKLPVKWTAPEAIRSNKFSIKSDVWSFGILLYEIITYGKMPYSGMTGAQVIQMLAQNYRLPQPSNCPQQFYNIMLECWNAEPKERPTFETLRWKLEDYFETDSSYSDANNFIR

[6] = biological target: panel of more than 300 wild-type and mutant kinases (313 kinase panel) (Homo sapiens, UniProt P49674)
[7] = biological target: panel of more than 300 wild-type and mutant kinases (313 kinase panel) (Homo sapiens, UniProt P54646)
[8] = biological target: panel of more than 300 wild-type and mutant kinases (313 kinase panel) (Homo sapiens, UniProt Q8TDX7)
[9] = biological target: T3, panel of more than 300 wild-type and mutant kinases (313 kinase panel) (Homo sapiens, UniProt Q96PN8)
T3 sequence (Q96PN8 1-268): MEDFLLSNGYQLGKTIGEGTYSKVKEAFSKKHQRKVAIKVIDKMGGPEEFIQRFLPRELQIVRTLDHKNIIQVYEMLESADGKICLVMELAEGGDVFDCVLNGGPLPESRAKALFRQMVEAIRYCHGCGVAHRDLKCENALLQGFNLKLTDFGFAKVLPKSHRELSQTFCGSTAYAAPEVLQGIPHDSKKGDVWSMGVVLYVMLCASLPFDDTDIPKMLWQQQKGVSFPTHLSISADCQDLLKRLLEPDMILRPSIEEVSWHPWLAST

[10] = biological target: panel of more than 300 wild-type and mutant kinases (313 kinase panel) (Homo sapiens, UniProt Q9H2X6)
[11] = biological target: panel of more than 300 wild-type and mutant kinases (313 kinase panel) (Homo sapiens, UniProt Q9UM73)
[12] = kinase CDC2/CycB1, 1 μM compound
[13] = kinase AMPKα2/β1/γ1, 1 μM compound

CO[C@H]1C[C@@H]2CC[C@@H](C)[C@@](O)(O2)C(=O)C(=O)N2CCCC[C@H]2C(=O)O[C@H]([C@H](C)C[C@@H]2CC[C@@H](OCCO)[C@H](OC)C2)CC(=O)[C@H](C)/C=C(\C)[C@@H](O)[C@@H](OC)C(=O)[C@H](C)C[C@H](C)/C=C/C=C/C=C/1C [everolimus]
%-inhibition of IKKα ([1]; kinase IKKα, compound at 1 μM): -3.22%
%-inhibition, CDC2/CycB1 [2, 12]: -19%
%-inhibition of PKCη ([3]; kinase PKCη, 1 μM): 9%
%-inhibition of TXK [4]: -4.36%
%-inhibition of FRK ([5]; kinase FRK, compound at 1 μM): 1.26%
%-inhibition, CK1ε ([6]; kinase CK1ε, 1 μM compound): -6.43%
%-inhibition, AMPKα2/β1/γ1 [7, 13]: -6%
%-inhibition of NEK7 ([8]; kinase NEK7, 1 μM): -11%
%-inhibition of TSSK3 ([9]; kinase TSSK3, compound at 1 μM): -3%
%-inhibition of HIPK2 ([10]; kinase HIPK2, compound at 1 μM): -6%
%-inhibition, ALK ([11]; kinase ALK, 1 μM compound): 1.68%

CCN(CC)CCNC(=O)c1c(C)[nH]c(/C=C2\C(=O)Nc3ccc(F)cc32)c1C [sunitinib]
%-inhibition of IKKα ([1]; kinase IKKα, compound at 1 μM): 0.813%
%-inhibition, CK1ε ([6]; kinase CK1ε, 1 μM compound): 45%

COc1cc2nccc(Oc3ccc(NC(=O)C4(C(=O)Nc5ccc(F)cc5)CC4)cc3)c2cc1OC [cabozantinib]
%-inhibition of IKKα ([1]; kinase IKKα, compound at 1 μM): -1.89%
%-inhibition, CDC2/CycB1 [2, 12]: -17%
%-inhibition of PKCη ([3]; kinase PKCη, 1 μM): 8.55%
%-inhibition of TXK [4]: 18%
%-inhibition, CK1ε ([6]; kinase CK1ε, 1 μM compound): 3.28%
%-inhibition, AMPKα2/β1/γ1 [7, 13]: 1.75%
%-inhibition of NEK7 ([8]; kinase NEK7, 1 μM): -6%
%-inhibition of TSSK3 ([9]; kinase TSSK3, compound at 1 μM): -1.06%
%-inhibition of HIPK2 ([10]; kinase HIPK2, compound at 1 μM): 60%
%-inhibition, ALK ([11]; kinase ALK, 1 μM compound): 49%

CC(C)(C)c1nc(-c2cccc(NS(=O)(=O)c3c(F)cccc3F)c2F)c(-c2ccnc(N)n2)s1 [dabrafenib]
%-inhibition of PKCη ([3]; kinase PKCη, 1 μM): 9%
%-inhibition of TXK [4]: 18%
%-inhibition of FRK ([5]; kinase FRK, compound at 1 μM): 81%
%-inhibition, CK1ε ([6]; kinase CK1ε, 1 μM compound): 10%
%-inhibition of NEK7 ([8]; kinase NEK7, 1 μM): 2.28%
%-inhibition of TSSK3 ([9]; kinase TSSK3, compound at 1 μM): -8%
%-inhibition of HIPK2 ([10]; kinase HIPK2, compound at 1 μM): 42%

C[C@@H](Oc1cc(-c2cnn(C3CCNCC3)c2)cnc1N)c1c(Cl)ccc(F)c1Cl [crizotinib]
%-inhibition of IKKα ([1]; kinase IKKα, compound at 1 μM): -1.78%
%-inhibition, CDC2/CycB1 [2, 12]: 19%
%-inhibition of PKCη ([3]; kinase PKCη, 1 μM): -8%
%-inhibition of TXK [4]: 39%
%-inhibition of FRK ([5]; kinase FRK, compound at 1 μM): 26%
%-inhibition, CK1ε ([6]; kinase CK1ε, 1 μM compound): 4%
%-inhibition, AMPKα2/β1/γ1 [7, 13]: 27%
%-inhibition of NEK7 ([8]; kinase NEK7, 1 μM): -5.3%
%-inhibition of TSSK3 ([9]; kinase TSSK3, compound at 1 μM): -0.601%
%-inhibition of HIPK2 ([10]; kinase HIPK2, compound at 1 μM): -6.53%

COc1cc2c(Nc3ccc(Br)cc3F)ncnc2cc1OCC1CCN(C)CC1 [vandetanib]
%-inhibition of IKKα ([1]; kinase IKKα, compound at 1 μM): -4.38%
%-inhibition, CDC2/CycB1 [2, 12]: -0.952%
%-inhibition of PKCη ([3]; kinase PKCη, 1 μM): -9%
%-inhibition of TXK [4]: 60%
%-inhibition of FRK ([5]; kinase FRK, compound at 1 μM): 79%
%-inhibition, AMPKα2/β1/γ1 [7, 13]: 4.74%
%-inhibition of NEK7 ([8]; kinase NEK7, 1 μM): -6%
%-inhibition of TSSK3 ([9]; kinase TSSK3, compound at 1 μM): -2.54%
%-inhibition of HIPK2 ([10]; kinase HIPK2, compound at 1 μM): -11%

C#Cc1cccc(Nc2ncnc3cc(OCCOC)c(OCCOC)cc23)c1 [erlotinib]
%-inhibition of IKKα ([1]; 1 µM): -5%
%-inhibition, CDC2/CycB1 ([2]; 1 µM): 6%
%-inhibition of PKCη ([3]; 1 µM): 6.34%
%-inhibition of FRK ([5]; 1 µM): 41%
%-inhibition, CK1ε ([6]; 1 µM): -2.38%
%-inhibition, AMPKα2/β1/γ1 ([7]; 1 µM): 4.43%
%-inhibition of NEK7 ([8]; 1 µM): 0.893%
%-inhibition of TSSK3 ([9]; 1 µM): -7%
%-inhibition of HIPK2 ([10]; 1 µM): 10%
%-inhibition, ALK ([11]; 1 µM): 35%

Cc1ccc(C(=O)Nc2ccc(CN3CCN(C)CC3)c(C(F)(F)F)c2)cc1C#Cc1cnc2cccnn12 [ponatinib]
%-inhibition of IKKα ([1]; kinase IKKα, compound at 1 μM): 27%
%-inhibition, CDC2/CycB1 [2, 12]: 33%
%-inhibition of PKCη ([3]; kinase PKCη, 1 μM): 5.45%
%-inhibition of TXK [4]: 98%
%-inhibition of FRK ([5]; kinase FRK, compound at 1 μM): 100%
%-inhibition, AMPKα2/β1/γ1 [7, 13]: 89%
%-inhibition of NEK7 ([8]; kinase NEK7, 1 μM): -10%
%-inhibition of TSSK3 ([9]; kinase TSSK3, compound at 1 μM): -4.67%
%-inhibition, ALK ([11]; kinase ALK, 1 μM compound): 9%

Cc1ccc(Nc2nccc(N(C)c3ccc4c(C)n(C)nc4c3)n2)cc1S(N)(=O)=O [pazopanib]
%-inhibition of IKKα ([1]; kinase IKKα, compound at 1 μM): -1.68%
%-inhibition, CDC2/CycB1 [2, 12]: 3%
%-inhibition of PKCη ([3]; kinase PKCη, 1 μM): -1.67%
%-inhibition of TXK [4]: 52%
%-inhibition, CK1ε ([6]; kinase CK1ε, 1 μM compound): 0%
%-inhibition, AMPKα2/β1/γ1 [7, 13]: 0.826%
%-inhibition of NEK7 ([8]; kinase NEK7, 1 μM): -4.75%
%-inhibition of TSSK3 ([9]; kinase TSSK3, compound at 1 μM): 4.41%
%-inhibition of HIPK2 ([10]; kinase HIPK2, compound at 1 μM): 5.51%
%-inhibition, ALK ([11]; kinase ALK, 1 μM compound): 48%

Cc1nc(Nc2ncc(C(=O)Nc3c(C)cccc3Cl)s2)cc(N2CCN(CCO)CC2)n1 [dasatinib]
%-inhibition, CDC2/CycB1 [2, 12]: 4.44%
%-inhibition of PKCη ([3]; kinase PKCη, 1 μM): 3%
%-inhibition of TSSK3 ([9]; kinase TSSK3, compound at 1 μM): -2.69%
%-inhibition of HIPK2 ([10]; kinase HIPK2, compound at 1 μM): 6%

COc1cc(Nc2c(C#N)cnc3cc(OCCCN4CCN(C)CC4)c(OC)cc23)c(Cl)cc1Cl [bosutinib]
%-inhibition of IKKα ([1]; kinase IKKα, compound at 1 μM): 1.66%
%-inhibition, CDC2/CycB1 [2, 12]: -1.38%
%-inhibition of PKCη ([3]; kinase PKCη, 1 μM): 1.14%
%-inhibition of TXK [4]: 72%
%-inhibition of FRK ([5]; kinase FRK, compound at 1 μM): 94%
%-inhibition, AMPKα2/β1/γ1 [7, 13]: 10%
%-inhibition of TSSK3 ([9]; kinase TSSK3, compound at 1 μM): -2%
%-inhibition, ALK ([11]; kinase ALK, 1 μM compound): 71%
